# Reference: paper PMC9358669, “Native metabolomics identifies the rivulariapeptolide family of protease inhibitors” (Nature Communications, 2022)
# Entries after “also recorded” stand apart in the source; their conditions may differ. Starred links: 1 amine or outer side, 2 acyl side, 3 side chain; linkers in the order of their positions; H or OH if unused. Positions of bridges follow the written chain, without caps; N, C: chain ends. Non-standard residues stand in square brackets, D forms with d. Residues, ends and D or L forms follow the SMILES beside them. *: point of attachment. Leu(3R-OH,Nα-propionyl) = CCC(=O)N[C@H](C(=O)*)[C@H](O)C(C)C; X1 = CC(C)[C@@H](O[*:3])[C@H](N[*:1])C(=O)[*:2]; NMeT = CN[C@H](C(=O)O)[C@@H](C)O; dPhLac = O=C(O)[C@H](O)Cc1ccccc1; NMeA = CN[C@@H](C)C(=O)O; NMeDha = C=C(NC)C(=O)O
# System: Chymotrypsin
# Test: not given
# Parameters: method as in earlier work
# Conditions: Supplementary Table 5, Top 50 chymotrypsin inhibitors among Ahp-cyclodepsipeptides; cited from earlier work
row,Molecule,IC50 [nM]
1,CCCC(=O)N[C@@H](CCC(N)=O)C(=O)N[C@@H]1C(=O)N[C@@H](CCCNC(N)=O)C(=O)N[C@H]2CC[C@@H](O)N(C2=O)[C@@H]([C@@H](C)CC)C(=O)N(C)[C@@H](Cc2ccc(OC)c(Br)c2)C(=O)N[C@@H](C(C)C)C(=O)O[C@@H]1C [Symplocamide A],380
2,C/C=C1\NC(=O)[C@@H](NC(=O)[C@@H](NC(=O)[C@H](C)NC(=O)C/C(C)=C/Cl)[C@@H](C)CC)[C@@H](C)OC(=O)[C@H](C(C)C)NC(=O)[C@H](Cc2ccc(O)cc2)N(C)C(=O)[C@H](Cc2ccccc2)N2C(=O)[C@H](CC[C@H]2O)NC1=O [Tutuilamide A],1000
3,C/C=C1\NC(=O)[C@@H](NC(=O)[C@@H](NC(=O)[C@H](C)NC(=O)C/C(C)=C/Cl)C(C)C)[C@@H](C)OC(=O)[C@H](C(C)C)NC(=O)[C@H](Cc2ccc(O)cc2)N(C)C(=O)[C@H](Cc2ccccc2)N2C(=O)[C@H](CC[C@H]2O)NC1=O [Tutuilamide B],577
4,Crocapeptin B,200
5,Cyanopeptolin CP978,260
6,Cyanopeptolin CP992,240
7,Cyanopeptolin CP1018,240
8,Dinghupepeptin B,1100
9,Loggerpeptin A,240
10,Micropeptin 88-A,400
11,Micropeptin 88-Y,1300
12,Micropeptin KB991,870
13,Micropeptin KB1048,630
14,Micropeptin MM850,1700
15,Micropeptin T-20,2.5
16,Tutuilamide C,542

# Same assay, conditions: cited from earlier work
row,Molecule,IC50 [nM]
1,Microcystin 996,640

# Target: T1, Chymotrypsin (Bos taurus, UniProt P00766)
# T1 construct: purchased Sigma-Aldrich
# Test: Native metabolomics / native MS detection of chymotrypsin-ligand complexes
# Assay type: binding
# Conditions: control compounds pooled at 10 µg/mL
# Experimental: For native metabolomics experiments, the same chromatographic parameters were used and in addition, 220 µL/min (setup A) or 150 µL/min (setup B) ammonium acetate buffer was infused post-column through a make-up pump and a PEEKT-splitter and enzyme solution was infused with 2 µL/min flow rate via the integrated syringe pump. ESI settings were set to 40 arb. units sheath gas flow, the auxiliary gas flow was set to 10 arb. units and sweep gas flow was set to 0 arb. units. The auxiliary gas temperature was set to 150 °C. The spray voltage was set to 3 kV and the inlet capillary was heated to 253 °C. S-lens level was set to 30 V applied. MS scan range was set to 2000-4000 m/z (setup A) and 2500–4000 m/z (setup B) with a resolution Rm/z 200 140,000 (setup A) and 120,000 (setup B) with 2 microscans. MS acquisition was performed in all-ion fragmentation (AIF) mode with Rm/z 200 with 20% HCD collision energy and an isolation window of 2000 –4000 m/z (setup A) or 2500–4000 m/z (setup B).
# For native LC-MS data, multiple charged spectra were deconvoluted using the Xtract algorithm in Qualbrowser, part of the Xcalibur software (Thermo Scientific) and also using FLASHDeconv (version 2.0Beta) {Jeong, K. et al. FLASHDeconv: Ultrafast, High-Quality Feature Deconvolution for Top- Down Proteomics. Cell Syst 10, 213-218 e216 (2020).}. For Xtract algorithm, both deconvoluted native LC-MS and metabolomics LC-MS/MS.raw files were converted to the centroid.mzML file format using MSconvert of the proteowizard software package. For FLASHDeconv, the raw files were converted into centroid m/zML again using MSconvert software first. Then the converted mzML files were deconvolved to generate deconvolved.mzML format files. Feature finding of both file types was performed using a modified version of MZmine2.37 (corr.17.7). Feature tables from both intact protein mass and metabolomics data were matched by their retention time (RT) and an m/z offset corresponding to the mass of chymotrypsin (25234 Da) with an RT tolerance of 0.2 min and a mass tolerance of 4 Da.
# To optimize ESI setting as well as the influence of NH4Acetate concentration and pH, we used molassamide as a test compound. For optimization of ESI settings, we performed flow injections without a column and ramped ESI aux gas temperature, in-source CID energy, S-lense RF voltage. Optimization of pH values over the entire LC gradient and peak intensities were both assessed using three different make-up buffers. Make-up buffer 1 was water, make-up buffer 2 was 10 mM NH4Acetate buffer, and make-up buffer 3 was 10 mM NH4Acetate buffer + 0.2% ammonium hydroxide, v/v. Effects of NH4Acetate concentration was assessed with an online mixed make-up flow (using Experimental Setup B) with the low-pressure gradient pump. As solvent A we used LC-MS grade water and 100 mM NH4Acetate as solvent B. Molassamide was prepared as 100 µM solutions from a 10 mM stock solution in DMSO by preparing a 1:100 dilution into solvent mixture 1 (water + 10% acetonitrile + 0.1% formic acid). Samples were analyzed as described in micro-flow LC-MS/MS data acquisition (setup A); 2 µL of each solution were injected into the mass spectrometer, while chymotrypsin (Sigma), dissolved in water to a final concentration of 2 mg/mL, was injected through the syringe pump at a flow rate of 2 µL/min. pH values were assessed by disconnecting the flow to the source and collecting ~30 µL of solvent every minute, then testing this value on pH paper.
# Molassamide was prepared as 100 µM solutions from a 10 mM stock solution in DMSO by preparing a 1:100 dilution into solvent mixture 1 (water + 10% acetonitrile + 0.1% formic acid). From this 100 µM solution, dilutions were prepared at 10, 1, and 0.1 µM into solvent mixture 1. 2 µL of each solution were injected into the mass spectrometer. […]
row,Molecule,binding to chymotrypsin under native MS conditions
1,"C=C1C(=O)N[C@@H](C)C(=O)N(C)[C@@H](C)C(=O)N[C@@H]([C@H](OC(=O)[C@@H](NC(=O)CC)[C@H](O)C(C)C)C(C)C)C(=O)N(C)[C@@H]([C@@H](C)OC)C(=O)O[C@H](C(C)C)[C@H](NC(C)=O)C(=O)O[C@H](Cc2ccccc2)C(=O)N1C [FR900359] (Ac-[X1][dPhLac][NMeDha]A[NMeA][X1](Leu(3R-OH,Nα-propionyl))[NMeT](Me); ester 1-C)",did not observe the binding; also recorded: no binding
2,CC[C@H](C)[C@@H](C(=O)O[C@@H](CC(C)C)C(=O)N[C@@H](CC(C)C)C(=O)N[C@@H](C)/C=C/C(=O)N1C(=O)C=C(OC)[C@@H]1C)N(C)C [gallinamide A],did not observe the binding; also recorded: no binding
3,O=c1c(-c2ccc(O)cc2)coc2cc(O)cc(O)c12 [genistein],did not observe the binding; also recorded: no binding
4,Oc1cc(O)cc(O)c1 [phloroglucinol],did not observe the binding; also recorded: no binding
5,O=C1c2ccc(O)c(O)c2C(=O)c2c(O)ccc(O)c21 [quinalizarin],did not observe the binding; also recorded: no binding
